This note sets out measurements from patent publication US10077272B2, “Heteroaromatic compounds and their use as dopamine D1 ligands” (PFIZER INC., priority 2014, dated 2018).

Molecules are shown by their SMILES. Where a name gives a salt, the structure may show the parent alone.

Sequence of Human D1 Receptor (P21728 whole entry): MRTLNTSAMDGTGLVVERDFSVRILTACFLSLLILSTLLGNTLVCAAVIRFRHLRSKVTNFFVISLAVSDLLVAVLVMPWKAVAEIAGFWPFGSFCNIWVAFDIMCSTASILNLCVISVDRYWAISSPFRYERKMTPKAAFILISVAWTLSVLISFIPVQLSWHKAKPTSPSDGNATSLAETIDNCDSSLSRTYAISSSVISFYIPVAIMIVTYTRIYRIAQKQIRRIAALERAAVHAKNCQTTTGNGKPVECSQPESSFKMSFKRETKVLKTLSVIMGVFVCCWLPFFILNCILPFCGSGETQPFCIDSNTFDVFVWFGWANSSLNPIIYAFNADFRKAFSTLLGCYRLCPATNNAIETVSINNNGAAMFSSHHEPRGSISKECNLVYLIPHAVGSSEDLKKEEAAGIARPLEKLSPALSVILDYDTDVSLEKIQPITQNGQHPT

This assay has as its target Human D1 Receptor (Homo sapiens (Human), UniProt P21728). Description: Human D1 Receptor Binding Assay ([3H]-SCH23390 competition). The note with it: competition with 0.5 nM [3H]-SCH23390, over-expressing LTK human cell lines, 30 min at 37° C.; values marked ^a are from a single determination; read-out: Human D1 Receptor Binding, Ki (nM); Geometric mean of 2-4 determinations (unless otherwise indicated). How it is done:
D1 binding assays were performed using over-expressing LTK human cell lines. […] These ligand and tissue concentrations were used in time course studies to determine linearity and equilibrium conditions for binding. […] The pellet was resuspended in assay buffer [50 mM Tris (pH 7.4@ RT) containing 4 mM MgSO4 and 0.5 mM EDTA]. […] Non-specific binding was determined by radioligand binding in the presence of a saturating concentration of (+)-Butaclamol (10 μM), a D1 antagonist. After a 30 minute incubation period at 37° C., assay samples were rapidly filtered through Unifilter-96 GF/B PEI-coated filter plates and rinsed with 50 mM Tris buffer (pH 7.4 at 4° C.). […] Ki values were calculated according to the Cheng-Prusoff equation: […]
For the molecule `Cc1cc(Oc2nccc3onc(C)c23)ccc1-c1c(C)n[nH]c(=O)c1C` [Example 16, 4,6-dimethyl-5-{2-methyl-4-[(3-methyl[1,2]oxazolo[4,5-c]pyridin-4-yl)oxy]phenyl}pyridazin-3(2H)-one, trifluoroacetic acid salt], the Ki stood at 326 nM.
As to `Cc1cc(Oc2ncnc3occc23)ccc1-c1c(C)n[nH]c(=O)c1C` [Example 6, 5-[4-(furo[2,3-d]pyrimidin-4-yloxy)-2-methylphenyl]-4,6-dimethylpyridazin-3(2H)-one], the inhibition constant Ki is 44.7 nM.
Consider `Cc1c(-c2ccc(Oc3nccc4onc(C)c34)cc2)n(C)c(=O)[nH]c1=O` [Example 15, 1,5-dimethyl-6-{4-[(3-methyl[1,2]oxazolo[4,5-c]pyridin-4-yl)oxy]phenyl}pyrimidine-2,4(1H,3H)-dione], for which the inhibition constant Ki was 280 nM.
Then `CCc1c(-c2ccc(Oc3ncnc4occc34)cc2)n(C)c(=O)[nH]c1=O` [Example 18, 5-ethyl-6-[4-(furo[2,3-d]pyrimidin-4-yloxy)phenyl]-1-methylpyrimidine-2,4(1H,3H)-dione], with 274 nM; and `Cc1c(-c2ccc(Oc3ncnc4occc34)cc2)n(C2CC2)c(=O)[nH]c1=O` [Example 21, 1-cyclopropyl-6-[4-(furo[2,3-d]pyrimidin-4-yloxy)phenyl]-5-methylpyrimidine-2,4(1H,3H)-dione], with 122 nM; and `CCc1c(-c2ccc(Oc3ncnc4occc34)cc2)n(CC)c(=O)[nH]c1=O` [Example 23, 1,5-diethyl-6-[4-(furo[2,3-d]pyrimidin-4-yloxy)phenyl]pyrimidine-2,4(1H,3H)-dione], with 309 nM.
`CCn1c(-c2ccc(Oc3ncnc4occc34)cc2)c(C)c(=O)[nH]c1=O` [Example 20, 1-ethyl-6-[4-(furo[2,3-d]pyrimidin-4-yloxy)phenyl]-5-methylpyrimidine-2,4(1H,3H)-dione]: the Ki was determined as 179 nM.
Then `Cc1cc(Oc2ncnc3occc23)ccc1-c1cn[nH]c(=O)c1C` [Example 14, 5-[4-(furo[2,3-d]pyrimidin-4-yloxy)-2-methylphenyl]-4-methylpyridazin-3(2H)-one], with 372 nM.
With `Cc1cc(Oc2nccc3onc(C)c23)ccc1-c1c(C)ncc(=O)n1C` [Example 17, 1,5-dimethyl-6-{2-methyl-4-[(3-methyl[1,2]oxazolo[4,5-c]pyridin-4-yl)oxy]phenyl}pyrazin-2(1H)-one, trifluoroacetic acid salt], the Ki stood at 1730 nM.
Then `Cc1cc(Oc2nccc3[nH]cnc23)ccc1-c1c(C)ncnc1C#N` [Example 12, 5-[4-(1H-imidazo[4,5-c]pyridin-4-yloxy)-2-methylphenyl]-6-methylpyrimidine-4-carbonitrile], with 367 nM.
With `CCc1c(-c2ccc(Oc3ncnc4occc34)cc2)n(C2CC2)c(=O)[nH]c1=O` [Example 22, 1-cyclopropyl-5-ethyl-6-[4-(furo[2,3-d]pyrimidin-4-yloxy)phenyl]pyrimidine-2,4(1H,3H)-dione] the figure was 142 nM; with `Cc1cc(Oc2ncnc3occc23)ccc1-c1c(C)ncc(=O)n1C` (single isomer, unassigned) [Example 4, (−)-6-[4-(furo[2,3-d]pyrimidin-4-yloxy)-2-methylphenyl]-1,5-dimethylpyrazin-2(1H)-one], 127 nM; with `Cc1cc(Oc2ncnc3occc23)ccc1-c1c(C)n[nH]c(=O)c1C` (single isomer, unassigned) [Example 8, (−)-5-[4-(furo[2,3-d]pyrimidin-4-yloxy)-2-methylphenyl]-4,6-dimethylpyridazin-3(2H)-one], 40.2 nM.
Turning to `Cc1n[nH]c(=O)c(C)c1-c1ccc(Oc2ncnc3occc23)cc1` [Example 13, 5-[4-(furo[2,3-d]pyrimidin-4-yloxy)phenyl]-4,6-dimethylpyridazin-3(2H)-one], the Ki came out at 70.3 nM.
With `Cc1c(-c2ccc(Oc3ncnc4occc34)cc2)n(C)c(=O)[nH]c1=O` [Example 9, 6-[4-(furo[2,3-d]pyrimidin-4-yloxy)phenyl]-1,5-dimethylpyrimidine-2,4(1H,3H)-dione] the figure was 142 nM; with `Cc1cc(Oc2ncnc3occc23)ccc1-c1c(C)n[nH]c(=O)c1C` (single isomer, unassigned) [Example 7, (+)-5-[4-(furo[2,3-d]pyrimidin-4-yloxy)-2-methylphenyl]-4,6-dimethylpyridazin-3(2H)-one], 30.7 nM; with `Cc1cc(Oc2ncnc3occc23)ccc1-c1c(C)ncc(=O)n1C` [Example 3, 6-[4-(furo[2,3-d]pyrimidin-4-yloxy)-2-methylphenyl]-1,5-dimethylpyrazin-2(1H)-one], 196 nM.
`COCCn1c(-c2ccc(Oc3ncnc4occc34)cc2)c(C)c(=O)[nH]c1=O` [Example 19, 6-[4-(furo[2,3-d]pyrimidin-4-yloxy)phenyl]-1-(2-methoxyethyl)-5-methylpyrimidine-2,4(1H,3H)-dione]: the Ki came out at 900 nM.
For the molecule `Cc1cc(Oc2ncnc3occc23)ccc1-c1c(C)ncc(=O)n1C` (single isomer, unassigned) [Example 5, (+)-6-[4-(furo[2,3-d]pyrimidin-4-yloxy)-2-methylphenyl]-1,5-dimethylpyrazin-2(1H)-one], the Ki turned out to be 400 nM.
